Two compounds from patent US4987140A, “Pyridines” (Roussel Uclaf, priority 1987, dated 1991) can be followed below.

The test system of this assay is chronic-arthritis with adjuvant (increase in volume of the rear paws). The experiment in a line: Anti-inflammatory activity: chronic-arthritis with adjuvant (preventative treatment). Format: in vivo, rat. Conditions: male rats aged 42 to 50 days, intra-plantar Freund type adjuvant, product orally from day 0 up to the day before killing (day 17), 24480 min. As to the method:
Anti-inflammatory activity: chronic-arthritis with adjuvant (preventative treatment)
In the rat, the injection of Freund type adjuvant in a rear paw causes the rapid appearance of a primary inflammatory lesion in this paw and then, after a latency period of 13 to 15 days, the start up of a secondary arthritic affection, particularly in the other rear paw. The test was carried out on male rats aged 42 to 50 days which received an intra-plantar injection of 0.1 ml of "Freund" type adjuvant (suspension in vaseline oil of 6 mg per ml of killed mycobacterium butyricum). The animals received the product orally from day 0 (day of injection of adjuvant) up to the day before they were killed, which occured on day 17. Control arthritic animals and control normal animals received only the vehicle. The criteria of appreciation of the activity of the substances studied was the increases in volume of the injected rear paws (primary and secondary inflammation) and the non-injected ones (secondary inflammation)by comparison with the average volume of the corresponding paws of normal controls. The DA50 was determined, that is to say, the dose which reduced by 50% the increase in volume of the rear paws of the treated animals in comparison with the control animals.

Take `Cc1c(-c2ccccc2)nc(C(F)(F)F)c(C(=O)Nc2nccs2)c1O` [Example 1, 4-hydroxy-5-methyl-6-phenyl-N-(2-thiazolyl)-2-trifluoromethyl-3-pyridine carboxamide]: the “DA50 (dose which reduced by 50% the increase in volume of the rear paws of the treated animals in comparison with the control animals)” value is reported as 0.3 mg/k. Under `O=C(Nc1nccs1)c1c(C(F)(F)F)nc(-c2ccccc2)c(-c2ccccc2)c1O` [Example 3, 5,6-diphenyl-4-hydroxy-N-(2-thiazolyl)-2-trifluoromethyl-3-pyridine carboxamide] stands 15 mg/k.
